This is an account of results in patent publication US7385063B2, “Method for preparing imidazole derivatives” (Chugai Seiyaku Kabushiki Kaisha, priority 2001, dated 2008).

Each structure is given as a SMILES string.

Tested on in the first data set: not given
Assay: not given
Details: not given
On to `O=C(NCc1ccccc1)Nc1ccc(C(O)(C(F)(F)F)C(F)(F)F)cc1` [Example 3, N-benzyl-N′-{4-[2,2,2-trifluoro-1-hydroxy-1-(trifluoromethyl)ethyl]phenyl}urea], for which the melting point is 163 to 164 °C (dec.).

The subject of the next data set is human breast cancer cells.
Assay: not given
The settings on record: breast carcinoma cells; Pizer et al.; cited from earlier work.
As to `CCCCCCCCCCCCCCOc1ccc(C(=O)O)o1` [TOFA, 5-(tetradecyloxy)-2-furoic acid], the “malonyl-CoA level, of the control” value is recorded as 60%.

Another data set deals with T1, malonyl-CoA decarboxylase prepared from rat heart (Rattus norvegicus, UniProt Q920F5).
T1 construct: malonyl-CoA decarboxylase prepared from rat heart; from tissue; host or cells: rat heart
T1 sequence (Q920F5 39-492): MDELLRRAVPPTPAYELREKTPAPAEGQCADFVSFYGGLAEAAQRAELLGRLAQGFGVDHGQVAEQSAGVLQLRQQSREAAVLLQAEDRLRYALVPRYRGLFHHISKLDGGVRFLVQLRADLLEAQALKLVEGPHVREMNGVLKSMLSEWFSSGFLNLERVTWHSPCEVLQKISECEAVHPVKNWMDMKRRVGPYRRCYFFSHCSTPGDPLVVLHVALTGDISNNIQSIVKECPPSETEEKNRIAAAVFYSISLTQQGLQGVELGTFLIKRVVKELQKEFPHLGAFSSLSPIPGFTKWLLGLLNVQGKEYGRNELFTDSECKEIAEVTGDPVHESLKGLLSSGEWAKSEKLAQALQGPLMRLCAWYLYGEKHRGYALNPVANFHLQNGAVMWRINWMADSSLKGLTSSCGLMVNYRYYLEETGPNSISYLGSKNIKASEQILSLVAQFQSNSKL
In words: In vitro MCD inhibitory assay (spectrophotometric, 96 well). Type of data set: biochemical. The settings on record: concentration causing 50% inhibition of MCD activity, read-out: IC50 of the MCD inhibitors. The protocol: The following reagents are added into a 96 well titer plate: Tris-HCl buffer, 20 μL; DTE, 10 μL; I-malate, 20 μL; NAD, 10 μL; NADH, 25 μL; water, 80 μL; malic dehydrogenase, 5 μL. The contents are mixed and incubated for 2 min followed by the addition of 5 μL of citrate synthase.
In the case of `CCN(CCC#N)C(=O)N(CCCCC(=O)O)c1ccc(C(O)(C(F)(F)F)C(F)(F)F)cc1` [Example 4-94], the IC50 is 9 nM.

On to `O=C(N1CCOCC1)N(CCCCc1nnn[nH]1)c1ccc(C(O)(C(F)(F)F)C(F)(F)F)cc1` [Example 4-114], for which the IC50 was determined as 10 nM.

`OC(c1ccc(-n2nc(-c3ccccn3)cc2-c2ccccn2)cc1)(C(F)(F)F)C(F)(F)F` [Example 8-4]: the IC50 worked out at 557 nM.

For the molecule `Cc1cc(-c2ccncc2)n(-c2ccc(C(O)(C(F)(F)F)C(F)(F)F)cc2)n1` [Example 8-28], the IC50 worked out at 223 nM.

Regarding `O=C(N1CCOCC1)N(CCCF)c1ccc(C(O)(C(F)(F)F)C(F)(F)F)cc1` [Example 4-130], the IC50 amounted to 36 nM.

Take `N#Cc1cccc(CS(=O)(=O)c2nccn2-c2ccc(C(O)(C(F)(F)F)C(F)(F)F)cc2)c1` [Example 6-1]: the IC50 came out at 18 nM.

Turning to `O=C(O)CCCCN(C(=O)c1ccncc1)c1ccc(C(O)(C(F)(F)F)C(F)(F)F)cc1` [Example 1-3], the IC50 stood at 7 nM.

With `O=S(=O)(Nc1ccc(C(O)(C(F)(F)F)C(F)(F)F)cc1)N1CCCCC1` [Example 2-5], the IC50 is 604 nM.
